# Measured values reported in US20260325533A1, “CDK INHIBITOR COMPOUNDS” (ALEKSIA THERAPEUTICS, INC., priority 2023, published 2026).
# pIC50: −log10 of the molar value. Where two headings read alike, the source gives them in different places.
# Key:
# Type in all cases: biochemical
# [1] = target: CDK2/CCNE1 (Homo sapiens, UniProt P24941); assay: CDK2 homogeneous time-resolved fluorescence (HTRF) kinase assay; details: CDK2/CCNE
# How it was run: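 TR-FRET read-out (665 nm, or 665/615 ratio) of Eu-antibody detection of phospho-4E-BP1 (Thr37/46) ULight peptide. Enzyme 3 nM, ATP 1 mM, peptide 50 nM, 1% DMSO; 60 min reaction at 23 °C after 20 min compound preincubation. IC50 from 11-point half-log titrations, top typically 10 μM.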
# [2] = target: CDK1/CCNB1 (Homo sapiens, UniProt P06493); assay: CDK1 homogeneous time-resolved fluorescence (HTRF) kinase assay; details: CDK1/CCNB
# Sequence of CDK1/CCNB1 (P06493 whole entry): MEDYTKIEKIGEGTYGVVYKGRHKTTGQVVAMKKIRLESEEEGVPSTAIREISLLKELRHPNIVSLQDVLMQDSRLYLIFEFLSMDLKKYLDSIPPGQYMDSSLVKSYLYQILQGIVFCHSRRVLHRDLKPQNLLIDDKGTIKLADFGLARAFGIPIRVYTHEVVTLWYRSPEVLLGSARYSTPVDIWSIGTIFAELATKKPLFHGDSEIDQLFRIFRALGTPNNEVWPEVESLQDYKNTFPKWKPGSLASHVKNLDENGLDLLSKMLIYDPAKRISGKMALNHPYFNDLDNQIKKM
# Sequence of CDK1/CCNB1 (P14635 whole entry partner): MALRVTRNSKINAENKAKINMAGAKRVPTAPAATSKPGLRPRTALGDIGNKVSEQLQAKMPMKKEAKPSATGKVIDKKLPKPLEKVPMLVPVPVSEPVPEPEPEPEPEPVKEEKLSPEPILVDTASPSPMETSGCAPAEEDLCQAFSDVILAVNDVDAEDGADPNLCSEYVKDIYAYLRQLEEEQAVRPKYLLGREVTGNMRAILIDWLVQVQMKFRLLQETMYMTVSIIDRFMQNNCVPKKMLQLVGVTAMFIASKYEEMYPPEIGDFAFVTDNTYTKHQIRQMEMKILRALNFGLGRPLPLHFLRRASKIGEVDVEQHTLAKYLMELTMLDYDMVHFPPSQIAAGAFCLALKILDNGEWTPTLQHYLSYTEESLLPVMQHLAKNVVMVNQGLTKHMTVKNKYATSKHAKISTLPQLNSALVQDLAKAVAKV
# How it was run: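 High-ATP (1 mM) HTRF assay with 0.5 nM CDK1/cyclin B1 and 50 nM ULight-4E-BP1 (Thr37/46) substrate, 60 min at 23 °C after 20-min compound preincubation. IC50 values come from dose-response curves.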
# [3] = target: CDK4/CCND3 (Homo sapiens, UniProt P11802); assay: CDK4 homogeneous time-resolved fluorescence (HTRF) kinase assay; details: CDK4/CCND
# Sequence of CDK4/CCND3 (P11802 whole entry): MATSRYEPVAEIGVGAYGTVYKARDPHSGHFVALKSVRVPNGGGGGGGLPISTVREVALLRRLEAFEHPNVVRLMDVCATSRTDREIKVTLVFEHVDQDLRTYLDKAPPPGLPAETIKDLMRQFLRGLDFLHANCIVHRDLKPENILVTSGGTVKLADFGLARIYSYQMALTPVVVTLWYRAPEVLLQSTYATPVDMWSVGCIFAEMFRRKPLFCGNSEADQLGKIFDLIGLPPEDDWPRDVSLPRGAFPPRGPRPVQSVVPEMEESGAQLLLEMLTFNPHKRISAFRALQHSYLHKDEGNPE
# Sequence of CDK4/CCND3 (P30281 whole entry partner): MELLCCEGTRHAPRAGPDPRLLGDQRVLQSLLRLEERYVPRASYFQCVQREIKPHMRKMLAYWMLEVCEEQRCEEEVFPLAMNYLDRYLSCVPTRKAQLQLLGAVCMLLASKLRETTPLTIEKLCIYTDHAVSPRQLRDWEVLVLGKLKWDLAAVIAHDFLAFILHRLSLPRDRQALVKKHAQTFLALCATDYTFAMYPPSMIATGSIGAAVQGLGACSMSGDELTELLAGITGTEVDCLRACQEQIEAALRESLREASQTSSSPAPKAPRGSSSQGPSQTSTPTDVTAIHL
# How it was run: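 HTRF kinase assay, CDK4/CCND3 1.5 nM, ATP 1 mM, ULight-4E-BP1 peptide 50 nM, 23 °C, 60 min reaction after 20 min preincubation. Eu-anti-pThr37/46 antibody detection. 11-pt half-log curves from 10 μM → IC50.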
# [4] = target: CDK6/CCND1 (Homo sapiens, UniProt Q00534); assay: CDK6 homogeneous time-resolved fluorescence (HTRF) kinase assay; details: CDK6/CCND
# Sequence of CDK6/CCND1 (Q00534 whole entry): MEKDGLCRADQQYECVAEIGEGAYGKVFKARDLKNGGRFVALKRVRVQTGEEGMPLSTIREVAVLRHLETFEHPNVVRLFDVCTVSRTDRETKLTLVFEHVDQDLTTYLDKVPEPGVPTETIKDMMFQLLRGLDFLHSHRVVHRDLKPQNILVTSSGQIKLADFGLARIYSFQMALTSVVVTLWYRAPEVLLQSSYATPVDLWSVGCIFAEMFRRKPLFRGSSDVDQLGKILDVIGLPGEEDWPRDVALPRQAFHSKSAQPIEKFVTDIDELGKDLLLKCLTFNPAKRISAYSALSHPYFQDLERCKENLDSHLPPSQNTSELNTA
# Sequence of CDK6/CCND1 (P24385 whole entry partner): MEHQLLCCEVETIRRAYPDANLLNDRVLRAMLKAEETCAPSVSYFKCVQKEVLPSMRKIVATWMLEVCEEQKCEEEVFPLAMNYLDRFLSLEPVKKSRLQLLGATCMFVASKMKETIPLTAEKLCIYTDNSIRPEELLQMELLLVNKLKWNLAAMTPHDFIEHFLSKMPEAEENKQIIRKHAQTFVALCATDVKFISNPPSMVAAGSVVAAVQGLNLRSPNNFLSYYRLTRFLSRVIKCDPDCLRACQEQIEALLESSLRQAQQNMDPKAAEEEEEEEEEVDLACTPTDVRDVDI
# How it was run: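 Recombinant CDK6/CCND1 (1 nM final) was preincubated with compound for 20 min at 23 °C in HEPES buffer with MgCl2, EGTA, DTT and Tween 20. Kinase reaction then ran 60 min at 23 °C with 1 mM ATP and 50 nM ULight-4E-BP1 (Thr37/46) peptide, and was stopped with EDTA.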
# [5] = 25-250 nM marked x, read-out: CDK2/CCNE IC50 25-250 nM
# [6] = >250 nM marked x, read-out: CDK1/CCNB IC50 >250 nM
# [7] = >250 nM marked x, read-out: CDK4/CCND IC50 >250 nM
# [8] = >250 nM marked x, read-out: CDK6/CCND IC50 >250 nM
# [9] = <25 nM, read-out: CDK2/CCNE IC50 <25 nM
# [10] = 25-250 nM marked x, read-out: CDK4/CCND IC50 25-250 nM
# [11] = 25-250 nM marked x, read-out: CDK6/CCND IC50 25-250 nM
# [12] = <25 nM, read-out: CDK4/CCND IC50 <25 nM
# [13] = 25-250 nM marked x, read-out: CDK1/CCNB IC50 25-250 nM
# [14] = >250 nM marked x, read-out: CDK2/CCNE IC50 >250 nM
Compound,"pIC50 [1, 5]","pIC50 [2, 6]","pIC50 [3, 7]","pIC50 [4, 8]","pIC50 [1, 9]","pIC50 [3, 10]",further results
"C=CS(=O)(=O)c1ccc(Nc2cc3c(-c4ccccc4OC(F)(F)F)nccc3cn2)cc1 [Ex 141, 5-(2-(trifluoromethoxy)phenyl)-N-(4-(vinylsulfonyl)phenyl)-2,6-naphthyridin-3-amine]",6.60 to 7.60,< 6.60,< 6.60,< 6.60,–,–,–
"C=CS(=O)(=O)c1ccc(Nc2cc3c(-c4ccc5ocnc5c4)nccc3cn2)cc1 [Ex 145, 5-(benzo[d]oxazol-5-yl)-N-(4-(vinylsulfonyl)phenyl)-2,6-naphthyridin-3-amine]",6.60 to 7.60,< 6.60,< 6.60,< 6.60,–,–,–
"CS(=O)(=O)c1ccc(Nc2cc3c(C4=CCNCC4)nccc3cn2)cc1 [Ex 146, N-(4-(methylsulfonyl)phenyl)-5-(1,2,3,6-tetrahydropyridin-4-yl)-2,6-naphthyridin-3-amine]",–,–,–,–,–,–,"pIC50 ([1]; CDK2/CCNE IC50 25-250 nM, 25-250 nM marked x): 6.60 to 7.60; pIC50 ([2]; CDK1/CCNB IC50 >250 nM, >250 nM marked x): < 6.60; pIC50 ([3]; CDK4/CCND IC50 25-250 nM, 25-250 nM marked x): 6.60 to 7.60; pIC50 ([4]; CDK6/CCND IC50 25-250 nM, 25-250 nM marked x): 6.60 to 7.60"
"Cc1c(-c2nccc3cnc(Nc4ccc(S(C)(=O)=O)cc4)cc23)ccc2[nH]ncc12 [Ex 148, 5-(4-methyl-1H-indazol-5-yl)-N-(4-(methylsulfonyl)phenyl)-2,6-naphthyridin-3-amine]",–,< 6.60,–,–,> 7.60,6.60 to 7.60,"pIC50 [4, 11]: 6.60 to 7.60"
"C=CS(=O)(=O)c1ccc(Nc2cc3c(C#CC)nccc3cn2)cc1 [Ex 149, 5-(prop-1-yn-1-yl)-N-(4-(vinylsulfonyl)phenyl)-2,6-naphthyridin-3-amine]",–,< 6.60,< 6.60,< 6.60,> 7.60,–,–
"CS(=O)(=O)c1ccc(Nc2cc3c(C#C[C@H]4CC[C@H](O)CC4)nccc3cn2)cc1 [Ex 150, (1r,4r)-4-((7-((4-(methylsulfonyl)phenyl)amino)-2,6-naphthyridin-1-yl)ethynyl)cyclohexan-1-ol]",–,< 6.60,–,–,> 7.60,–,"pIC50 [3, 12]: > 7.60; pIC50 [4, 11]: 6.60 to 7.60"
"C=CS(=O)(=O)c1ccc(Nc2cc3c(C#Cc4ccc(C#N)cc4)nccc3cn2)cc1 [Ex 156, 4-((7-((4-(vinylsulfonyl)phenyl)amino)-2,6-naphthyridin-1-yl)ethynyl)benzonitrile]",6.60 to 7.60,< 6.60,< 6.60,< 6.60,–,–,–
"Cc1c(-c2nccc3cnc(Nc4ccc(S(C)(=O)=O)cc4)cc23)ccc2c1cnn2C [Ex 158, 5-(1,4-dimethyl-1H-indazol-5-yl)-N-(4-(methylsulfonyl)phenyl)-2,6-naphthyridin-3-amine]",–,< 6.60,–,< 6.60,> 7.60,6.60 to 7.60,–
"C=CS(=O)(=O)c1ccc(Nc2cc3c(-c4ccc5cc[nH]c5c4)nccc3cn2)cc1 [Ex 162, 5-(1H-indol-6-yl)-N-(4-(vinylsulfonyl)phenyl)-2,6-naphthyridin-3-amine]",–,< 6.60,< 6.60,< 6.60,> 7.60,–,–
"Cc1c(-c2nccc3cnc(Nc4ccc(S(C)(=O)=O)cc4)cc23)ccc2nn(C)cc12 [Ex 166, 5-(2,4-dimethyl-2H-indazol-5-yl)-N-(4-(methylsulfonyl)phenyl)-2,6-naphthyridin-3-amine]",–,< 6.60,–,–,> 7.60,6.60 to 7.60,"pIC50 [4, 11]: 6.60 to 7.60"
"Cc1nc(-c2nccc3cnc(Nc4ccc(S(C)(=O)=O)cc4)cc23)no1 [Ex 167, 5-(5-methyl-1,2,4-oxadiazol-3-yl)-N-(4-(methylsulfonyl)phenyl)-2,6-naphthyridin-3-amine]",6.60 to 7.60,< 6.60,< 6.60,< 6.60,–,–,–
"CS(=O)(=O)c1ccc(Nc2cc3c(-c4ccc5[nH]ncc5c4Cl)nccc3cn2)cc1 [Ex 183, 5-(4-chloro-1H-indazol-5-yl)-N-(4-(methylsulfonyl)phenyl)-2,6-naphthyridin-3-amine]",–,< 6.60,–,< 6.60,> 7.60,6.60 to 7.60,–
"CS(=O)(=O)c1ccc(Nc2cc3c(-c4ccc5[nH]ncc5c4F)nccc3cn2)cc1 [Ex 184, 5-(4-fluoro-1H-indazol-5-yl)-N-(4-(methylsulfonyl)phenyl)-2,6-naphthyridin-3-amine]",6.60 to 7.60,< 6.60,–,< 6.60,–,6.60 to 7.60,–
"C=CS(=O)(=O)c1ccc(Nc2cc3c(-c4ccc5[nH]ccc5c4)nccc3cn2)cc1 [Ex 185, 5-(1H-indol-5-yl)-N-(4-(vinylsulfonyl)phenyl)-2,6-naphthyridin-3-amine]",6.60 to 7.60,< 6.60,< 6.60,< 6.60,–,–,–
"N#CC1CCN(c2nccc3cnc(Nc4ccc(S(N)(=O)=O)cc4)cc23)CC1 [Ex 187, 4-((5-(4-cyanopiperidin-1-yl)-2,6-naphthyridin-3-yl)amino)benzenesulfonamide]",–,–,–,–,> 7.60,6.60 to 7.60,"pIC50 [2, 13]: 6.60 to 7.60; pIC50 [4, 11]: 6.60 to 7.60"

# Continued, in another order:
"pIC50 [1, 5]","pIC50 [2, 6]","pIC50 [3, 7]","pIC50 [4, 8]","pIC50 [1, 9]","pIC50 [3, 10]",Compound,further results
–,< 6.60,< 6.60,< 6.60,–,–,"CS(=O)(=O)c1ccc(Nc2cc3c(C4CCN(C(=O)Nc5cccnc5)CC4)nccc3cn2)cc1 [Ex 198, 4-(7-((4-(methylsulfonyl)phenyl)amino)-2,6-naphthyridin-1-yl)-N-(pyridin-3-yl)piperidine-1-carboxamide]","pIC50 [1, 14]: < 6.60"
6.60 to 7.60,< 6.60,< 6.60,< 6.60,–,–,"COCCNC(=O)[C@H]1CC[C@H](c2nccc3cnc(Nc4ccc(S(C)(=O)=O)cc4)cc32)CC1 [Ex 199, (1r,4r)-N-(2-methoxyethyl)-4-(7-((4-(methylsulfonyl)phenyl)amino)-2,6-naphthyridin-1-yl)cyclohexane-1-carboxamide]",–
6.60 to 7.60,< 6.60,< 6.60,< 6.60,–,–,"CS(=O)(=O)c1ccc(Nc2cc3c(ccnc3[C@H]3CC[C@H](C(=O)NC4CCC4)CC3)cn2)cc1 [Ex 200, (1r,4r)-N-cyclobutyl-4-(7-((4-(methylsulfonyl)phenyl)amino)-2,6-naphthyridin-1-yl)cyclohexane-1-carboxamide]",–
–,< 6.60,< 6.60,< 6.60,–,–,"CS(=O)(=O)c1ccc(Nc2cc3c(ccnc3[C@H]3CC[C@H](C(=O)N4CCOCC4)CC3)cn2)cc1 [Ex 201, ((1r,4r)-4-(7-((4-(methylsulfonyl)phenyl)amino)-2,6-naphthyridin-1-yl)cyclohexyl)(morpholino)methanone]","pIC50 [1, 14]: < 6.60"
6.60 to 7.60,< 6.60,< 6.60,< 6.60,–,–,"CS(=O)(=O)c1ccc(Nc2cc3c(ccnc3[C@H]3CC[C@H](C(=O)Nc4ccccc4)CC3)cn2)cc1 [Ex 202, (1r,4r)-4-(7-((4-(methylsulfonyl)phenyl)amino)-2,6-naphthyridin-1-yl)-N-phenylcyclohexane-1-carboxamide]",–
6.60 to 7.60,< 6.60,< 6.60,< 6.60,–,–,"Cc1c(-c2nccc3cnc(Nc4ccc(S(C)(=O)=O)cc4)cc23)ccc2nn(CCO)cc12 [Ex 206, 2-(4-methyl-5-(7-((4-(methylsulfonyl)phenyl)amino)-2,6-naphthyridin-1-yl)-2H-indazol-2-yl)ethan-1-ol]",–
–,–,–,–,> 7.60,–,"Cc1c(-c2nccc3cnc(Nc4ccc(S(C)(=O)=O)cc4)cc23)ccc2c1cnn2CC1CNC1 [Ex 207, 5-(1-(azetidin-3-ylmethyl)-4-methyl-1H-indazol-5-yl)-N-(4-(methylsulfonyl)phenyl)-2,6-naphthyridin-3-amine]","pIC50 [2, 13]: 6.60 to 7.60; pIC50 [3, 12]: > 7.60; pIC50 ([4]; <25 nM, read-out: CDK6/CCND IC50 <25 nM): > 7.60"
–,< 6.60,–,–,> 7.60,6.60 to 7.60,"COC(=O)[C@H]1CC[C@H](C#Cc2nccc3cnc(Nc4ccc(S(C)(=O)=O)cc4)cc23)CC1 [Ex 213, methyl (1r,4r)-4-((7-((4-(methylsulfonyl)phenyl)amino)-2,6-naphthyridin-1-yl)ethynyl)cyclohexane-1-carboxylate]","pIC50 [4, 11]: 6.60 to 7.60"
